Each structure is given as a SMILES string.

This data set concerns pain and/or inflammation in volunteers. Kind of data set: Tests on various subjects using Composition 2 (pain and/or inflammation). The class given is in vivo. Particulars: past medication of volunteers; testimony. The method, then:
Composition 2 was tested on several subjects so as to verify its activity as anti-inflammatory agent and/or analgesic. As it can be seen from Table 1, test subjects having various inflammations or pain have been treated with Composition 2. In each case, a small amount of Composition 2, in the form of a cream, was applied to inflamed skin area by means of a short gentle rub.

On to `CC(=O)Oc1ccccc1C(=O)O` [Aspirin, acetylsalicylic acid], for which the “gastric side effect reported by volunteers” value was “severe gastric burning sensation”.

(Values after patent US20100137248A1, “BORON-CONTAINING COMPOUNDS, USES AND PREPARATION THEREOF” (DINOTEC INC., priority 2007, published 2010).)
